Results published in PMC7158045 (BMC Plant Biology, 2020).
Counter-ions that a name gives are not always drawn.

Key:
Assay in all cases: biochemical
ZmDRIK1-R187-P492 = biological target: T1, ZmDRIK1-R187-P492 (Zea mays, UniProt C0P4K9); conditions: read-out: dTm B, DSF, Boltzmann fit, 0.1% DMSO
T1 construct: kinase domain, R187-P492
T1 sequence (C0P4K9 1-514): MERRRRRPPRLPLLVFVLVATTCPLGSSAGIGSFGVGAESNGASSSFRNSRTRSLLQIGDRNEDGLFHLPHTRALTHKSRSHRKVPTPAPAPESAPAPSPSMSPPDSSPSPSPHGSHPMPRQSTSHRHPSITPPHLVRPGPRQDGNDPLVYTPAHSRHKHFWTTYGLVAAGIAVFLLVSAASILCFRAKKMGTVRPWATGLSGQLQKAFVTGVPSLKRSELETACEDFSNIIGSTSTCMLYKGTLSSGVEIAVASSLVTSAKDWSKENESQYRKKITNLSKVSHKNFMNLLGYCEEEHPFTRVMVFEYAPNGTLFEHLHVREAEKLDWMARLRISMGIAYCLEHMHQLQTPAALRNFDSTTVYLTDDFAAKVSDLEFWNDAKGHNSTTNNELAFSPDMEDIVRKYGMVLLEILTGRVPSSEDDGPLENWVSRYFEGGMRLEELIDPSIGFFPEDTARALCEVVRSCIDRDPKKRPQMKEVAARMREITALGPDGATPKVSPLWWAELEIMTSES

[1] = biological target: T2, ZmDRIK1 (DROUGHT RESPONSIVE INACTIVE KINASE 1), kinase domain (Zea mays, UniProt C0P4K9); conditions: read-out: dTm B, sheet ZmDRIK1-R187-S514;; DSF, Boltzmann fit, 0.1% DMSO
T2 construct: gene ZEAMMB73_Zm00001d028770; ZmDRIK1-KD R187-S514 (kinase domain)
T2 sequence (C0P4K9 187-514): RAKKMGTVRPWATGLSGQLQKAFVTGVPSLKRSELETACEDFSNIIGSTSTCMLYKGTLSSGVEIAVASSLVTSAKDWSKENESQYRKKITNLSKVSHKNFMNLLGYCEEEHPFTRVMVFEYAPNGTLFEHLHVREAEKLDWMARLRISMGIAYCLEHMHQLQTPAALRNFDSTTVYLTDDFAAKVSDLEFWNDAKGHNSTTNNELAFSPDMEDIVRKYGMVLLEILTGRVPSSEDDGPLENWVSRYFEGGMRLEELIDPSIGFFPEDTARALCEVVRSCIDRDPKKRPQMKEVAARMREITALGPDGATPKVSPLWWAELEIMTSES

ZmDRIK1-K217-P492 = biological target: T3, ZmDRIK1-K217-P492 (Zea mays, UniProt C0P4K9); conditions: read-out: dTm B, sheet ZmDRIK1-K217-P492;; DSF, Boltzmann fit, 0.1% DMSO
T3 construct: kinase domain, K217-P492
T3 sequence (C0P4K9 1-514): T1 sequence (C0P4K9 1-514)

ZmDRIK1-K217-S514 = biological target: T4, ZmDRIK1-K217-S514 (Zea mays, UniProt C0P4K9); conditions: read-out: dTm B, sheet ZmDRIK1-K217-S514;; DSF, Boltzmann fit, 0.1% DMSO
T4 construct: kinase domain, K217-S514
T4 sequence (C0P4K9 1-514): T1 sequence (C0P4K9 1-514)

Compound | ΔTm at 10 µM (ZmDRIK1-R187-P492) | ΔTm at 10 µM [1] | ΔTm at 10 µM (ZmDRIK1-K217-P492) | ΔTm at 10 µM (ZmDRIK1-K217-S514)
Cc1[nH]nc2ccc(-c3cncc(OC[C@@H](N)Cc4ccccc4)c3)cc12 [A-674563] | -0.417 °C | -0.493 °C | -0.898 °C | -0.328 °C
CN(C)Cc1cccc(N/C(=C2\C(=O)Nc3cc(C(N)=O)ccc32)c2ccccc2)c1 [BIX 02188] | -0.00337 °C | -0.816 °C | -0.147 °C | -0.0855 °C
O=C(Nc1cccc(Cl)c1)Nc1ncc(CCNc2ncnc3ccsc23)s1 [SNS-314 Mesylate] | 0.159 °C | -23.9 °C | -0.277 °C | -1.86 °C
Cc1ccc(S(=O)(=O)/C=C/C#N)cc1 [BAY 11-7082] | -1.15 °C | -1.51 °C | -2.48 °C | -0.963 °C
CSc1cccc(Nc2ncc3cc(-c4c(Cl)cccc4Cl)c(=O)n(C)c3n2)c1 [PD173955] | -0.72 °C | -1.36 °C | -2.14 °C | -0.595 °C
CNC(=O)c1c(F)cccc1Nc1nc(Nc2cc3c(ccn3C(=O)CN(C)C)cc2OC)nc2[nH]ccc12 [GSK1838705A] | -0.292 °C | -0.961 °C | -0.578 °C | -0.398 °C
CN1CCN(C2CCN(C(=O)Nc3cc(Oc4ccc(NC(=O)C5(C(=O)Nc6ccc(F)cc6)CC5)c(F)c4)ccn3)CC2)CC1 [Golvatinib (E7050)] | -0.232 °C | -0.382 °C | -0.473 °C | -0.278 °C
Cc1cc(Nc2cc(N3CCN(C)CC3)nc(Sc3ccc(NC(=O)C4CC4)cc3)n2)n[nH]1 [VX-680 (Tozasertib)] | -0.37 °C | -0.713 °C | -1.16 °C | -0.694 °C
COc1cc2c(N3CCN(C(=O)Nc4ccc(OC(C)C)cc4)CC3)ncnc2cc1OCCCN1CCCCC1 [Tandutinib (MLN518)] | -0.158 °C | -0.869 °C | -0.971 °C | -0.303 °C
COc1cc2ncnc(Nc3ccc(Cl)cc3F)c2cc1OC [ZM 306416] | -0.383 °C | -0.525 °C | -0.758 °C | -0.336 °C
COc1ncc(-c2ccc3nccc(-c4ccnnc4)c3c2)cc1NS(=O)(=O)c1ccc(F)cc1F [GSK2126458 (GSK458)] | -0.322 °C | -0.808 °C | -1.03 °C | -0.505 °C
N#CC(=C(/N)Sc1ccccc1N)/C(C#N)=C(\N)Sc1ccccc1N [U0126-EtOH] | -0.611 °C | -1.26 °C | -1.09 °C | -0.582 °C
CO[C@H]1C[C@@H]2CC[C@@H](C)[C@@](O)(O2)C(=O)C(=O)N2CCCC[C@H]2C(=O)O[C@H]([C@H](C)C[C@@H]2CC[C@@H](O)[C@H](OC)C2)CC(=O)[C@H](C)/C=C(\C)[C@@H](O)[C@@H](OC)C(=O)[C@H](C)C[C@H](C)/C=C/C=C/C=C/1C [Rapamycin (Sirolimus)] | -1.03 °C | -1.41 °C | -1.45 °C | -0.483 °C
CNC(=O)c1ccccc1Nc1nc(Nc2ccc(N3CCOCC3)cc2OC)ncc1Cl [TAE226 (NVP-TAE226)] | -0.231 °C | -0.781 °C | -0.725 °C | -0.321 °C
O=C(Nc1c[nH]nc1-c1nc2ccc(CN3CCOCC3)cc2[nH]1)NC1CC1 [AT9283] | -0.23 °C | -0.914 °C | -0.742 °C | -0.536 °C
CNC(=O)c1cc(COc2nnc(Nc3ccc(Cl)cc3)c3ccoc23)ccn1 [Telatinib] | -0.226 °C | -0.862 °C | -0.739 °C | -0.252 °C
Clc1ccc(Nc2nnc(Cc3ccncc3)c3ccccc23)cc1 [Vatalanib (PTK787) 2HCl] | -0.124 °C | -0.775 °C | -1.11 °C | -0.391 °C
CO[C@H]1C[C@@H]2CC[C@@H](C)[C@@](O)(O2)C(=O)C(=O)N2CCCC[C@H]2C(=O)O[C@H]([C@H](C)C[C@@H]2CC[C@@H](OC(=O)C(C)(CO)CO)[C@H](OC)C2)CC(=O)[C@H](C)/C=C(\C)[C@@H](O)[C@@H](OC)C(=O)[C@H](C)C[C@H](C)/C=C/C=C/C=C/1C [Temsirolimus (CCI-779)] | -0.393 °C | -2.07 °C | -1.36 °C | -0.361 °C
COc1ccc(C(=O)Nc2sc3c(c2C(N)=O)CCCC3)cc1OC [TCS 359] | -0.318 °C | 0.606 °C | -0.245 °C | -0.549 °C
Cc1cc(O)c2c(c1)C(=O)c1cccc(O)c1C2=O [Chrysophanic Acid] | -0.205 °C | -0.414 °C | -1.17 °C | -0.229 °C
CCOC(=O)c1cnc2ccc(-c3cncc(NS(=O)(=O)c4ccccc4)c3)cn12 [HS-173] | -0.247 °C | -0.566 °C | -0.326 °C | -0.361 °C

Further lines, results first:

ΔTm at 10 µM (ZmDRIK1-R187-P492) | ΔTm at 10 µM [1] | ΔTm at 10 µM (ZmDRIK1-K217-P492) | ΔTm at 10 µM (ZmDRIK1-K217-S514) | Compound
-0.288 °C | -1.31 °C | -0.463 °C | -0.605 °C | Cc1[nH]c(/C=C2\C(=O)Nc3ccc(S(=O)(=O)N(C)c4cccc(Cl)c4)cc32)c(C)c1C(=O)N1CCN(C)CC1 [SU11274]
-0.201 °C | -1.2 °C | -0.652 °C | -0.412 °C | C#Cc1cccc(Nc2ncnc3cc(OCCOC)c(OCCO)cc23)c1 [OSI-420]
-0.496 °C | -0.0163 °C | -1.08 °C | -0.442 °C | CCc1nc(-c2cccc(C)c2)c(-c2ccnc(NC(=O)c3ccccc3)c2)s1 [TAK-715]
-0.0503 °C | -0.576 °C | -0.909 °C | -0.0615 °C | OCCn1cc(-c2cnc3nnn(Cc4ccc5ncccc5c4)c3n2)cn1 [PF-04217903]
-0.434 °C | -1.27 °C | -1.2 °C | -0.557 °C | C=CC(=O)Nc1cccc(Oc2nc(Nc3ccc(N4CCN(C)CC4)cc3OC)ncc2Cl)c1 [WZ4002]
0.97 °C | -0.687 °C | -1.11 °C | -0.255 °C | COC(=O)Nc1ccc(-c2nc(N3CCOCC3)c3cnn(C4CCN(C(=O)OC)CC4)c3n2)cc1 [WYE-354]
-0.284 °C | -0.54 °C | -0.95 °C | -0.33 °C | CN1CCN(c2cccc(Nc3nc4c(-c5ccc(S(C)(=O)=O)cc5)cccn4n3)c2)CC1 [CEP-33779]
0.313 °C | -1.14 °C | -0.775 °C | -0.183 °C | Cc1nc(N)sc1-c1ccnc(Nc2ccc(N3CCOCC3)cc2)n1 [CYC116]
-0.153 °C | -0.926 °C | -0.0998 °C | -0.486 °C | Cc1ccc2nc(NCCN)c3ncc(C)n3c2c1 [BMS-345541]
-0.956 °C | -0.0221 °C | -0.207 °C | -0.917 °C | COc1cc2ncnc(Oc3cccc(NC(=O)Nc4cc(C(C)(C)C(F)(F)F)on4)c3)c2cc1OC [CEP-32496]
-0.328 °C | -0.448 °C | -0.718 °C | -0.465 °C | Cc1nc(NC(=O)N2CCC[C@H]2C(N)=O)sc1-c1ccnc(C(C)(C)C(F)(F)F)c1 [BYL719]
-0.136 °C | -0.531 °C | -1.08 °C | -0.228 °C | COc1ccc(-c2nc(N3CCOCC3)c3sc(CN(C)c4ncc(C(=O)NO)cn4)cc3n2)cn1 [CUDC-907]
-0.19 °C | -1.05 °C | -0.796 °C | -0.15 °C | C[C@@H](Oc1cc(-n2cnc3ccc(CN4CCN(C)CC4)cc32)sc1C(N)=O)c1ccccc1C(F)(F)F [GSK461364]
-0.00788 °C | -0.897 °C | -0.696 °C | -0.0548 °C | C=CC(=O)Nc1cccc(Oc2nc(Nc3ccc(N4CCN(C)CC4)cc3)ncc2Cl)c1 [WZ3146]
-0.418 °C | -0.416 °C | -1.03 °C | -0.417 °C | COc1cccc2cc(-c3nc([C@H]4CC[C@H](C(=O)O)CC4)n4ncnc(N)c34)[nH]c12 [OSI-027]
